Laboratory results taken from patent US20080187608A1, “ENRICHED FRACTIONS FROM CLARY SAGE FOR THE TREATMENT OF CANCER, CARDIOVASCULAR AND INFLAMMATORY DISEASES” (SAVIPU PHARMACEUTICALS, priority 2007, published 2008).

Columns and labels:
[1] = test system: NAD[P]H:(quinone-acceptor) oxidoreductase (QR) in mouse hepatoma Hepa 1c1c7 cells; assay: Activation of quinone reductase (QR) in Hepa 1c1c7 cells, menadione-coupled tetrazolium reduction; type: cell-based
Description: Activation of Quinone reductase (NAD[P]H:(quinone-acceptor) oxidoreductase (QR). We studied the effects of SP001P and SP 2010 on the activation of QR, a phase 2 enzyme in mouse hepatoma cells Hepa 1c1c7 (ATCC) at lower concentrations. QR protects cells against quinones and highly reactive semiquinones by catalyzing an obligate two-electron reduction of quinones to hydroquinones. We have developed a 96-well plate assay to assess QR activity in these cell lines. QR activity was measured by a menadione-coupled reduction of tetrazolium dye as modified from Prochaska and Santamari. Cells (10^4 per well) were grown for 24 h and then exposed to serial dilutions of inducers for 24 h. Protein concentrations in a corresponding plate were determined by methylene blue staining as described earlier. SP001P and SP 2010 stimulated NAD[P]H:(quinone-acceptor) oxidoreductase (QR), a phase 2 enzyme in a dose dependent manner in mouse hepatoma Hepa 1c1c7 cells at concentrations known to inhibit B[a]P-induced transformation of RTE cells, (FIG. 2). The concentration required to double the specific activity of QR (CD value) for SP001P and SP 2010 were 24 ng/ml and 49 nM, respectively.

[2] = test system: NFκB transcription factor in A549/NFκB-luc reporter cell line; assay: NF-κB transactivation after rhTNFα in A549/NFκB-luc reporter cell line; type: cell-based; details: rhTNFα activation
Excerpt: (§1) Inhibition of activation of NF-kB by SP001P and SP 2010. We evaluated the effects of SP001P and SP 2010 on the activity of NFκB transcription factor after activation with rhTNFα in a reporter cell line A549/NFκB-luc designed by Panomics according to the manufacturer's instructions. […] It is interesting to note that although SP001P has only 20% of SP 2010 yet it produced a dose response curve that was very similar with SP 2010 (FIG. 4A). […] We studied the effects of SP 2010 on TNF-α-dependent activation of NF-κB binding to KB site in nuclear extracts of HeLa cells. To measure the binding of the activated NF-κB to its consensus KB sequence, nuclear extracts from HeLa cells treated with SP 2010 and stimulated with TNFα were prepared by the Panomics Nuclear Extraction kit. Nuclear extracts were diluted to 2 μg/μl and 10 μl of the extract was used to quantify transcription factor activation, specifically that of NF-κB p50 (ELISA, Panomics).

[3] = test system: NF-κB p50 binding to KB site in HeLa cells; assay: TNF-α-dependent NF-κB binding to κB site in nuclear extracts of HeLa cells (NF-κB p50 ELISA); type: cell-based; details: HeLa cells stimulated with TNFα
Excerpt: as §1

[4] = Oxygen Radical Absorbance Capacity (ORAC) assay
Excerpt: Antioxidant Capability of SP001P and SP 2010. The Oxygen Radical Absorbance Capacity (ORAC) assay depends on the free radical damage to a fluorescent probe, such as fluorescein, to result in a downward change of fluorescent intensity. The presence of antioxidants results in an inhibition in the free radical damage to the fluorescent compound. Reactions containing antioxidants and blanks (solvent) are run in parallel using equivalent amounts of a ROS generator and fluorescent probe. The area under the curve (AUC) from the experimental sample is calculated. Results from different samples are compared with Trolox®, (6-hydroxy-2,5,7,8-tetrametmethylchroman-2-carboxylic acid) a water soluble vitamin E analog and ORAC results are expressed as Trolox® equivalents. ORAC values are calculated using the regression equation between Trolox concentration and the net AUC and are expressed as micromole Trolox equivalents per gram of sample. SP001P and SP 2010 are potent antioxidants with values of 357 and 441 micromole Trolox equivalents per gram, respectively.

What does the source list for Cc1coc2c1C(=O)C(=O)c1c-2ccc2c1CCCC2(C)C [SP 2010, Tanshinone IIA]?
concentration required to double the specific activity of QR (CD value) ([1]; 24 h exposure): 49 nM; stimulation of QR ([1]; FIG. 2): stimulated; transactivation of NF-κB [2]: dose-dependent decrease; NF-κB binding to KB site [3]: dose-dependent decrease; ORAC value [4]: 441 micromole Trolox equivalents per gram
